Measured values as given in PubChem BioAssay AID1963825 (Molecular Pharmacology Branch, DTP, NCI, 2024).

Experiment: Anticancer human tumor 997537-175-T-J1-PDC patient-derived colon adenocarcinoma cell line growth inhibition [POLQ]
Settings: 997537-175-T-J1-PDC complex spheroid viability, combination with POLQ inhibitors; for IC50: curve of first compound; for viability, T/C: stronger effect = lower value; active = viability on the fitted dose curve at most 10% of control; inactive = the rest
Summary of the method: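 Three-cell-type spheroids modelling solid tumor plus stroma served as the readout system; POL inhibitors were tested individually and in combination, concentration ranges set by clinical Cmax where known.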

[1] = second compound 0.0316 µM, first compound 0.0316 µM
[2] = second compound 0.0316 µM, first compound 0.1 µM
[3] = second compound 0.0316 µM, first compound 0.316 µM
[4] = second compound 0.0316 µM, first compound 1 µM
[5] = second compound 0.0316 µM, first compound 3.16 µM
[6] = second compound 0.0316 µM, first compound 10 µM
[7] = second compound 0.1 µM, first compound 0.0316 µM
[8] = second compound 0.1 µM, first compound 0.1 µM
[9] = second compound 0.1 µM, first compound 0.316 µM
[10] = second compound 0.1 µM, first compound 1 µM
[11] = second compound 0.1 µM, first compound 3.16 µM
[12] = second compound 0.1 µM, first compound 10 µM
[13] = second compound 0.316 µM, first compound 0.0316 µM
[14] = second compound 0.316 µM, first compound 0.1 µM
[15] = second compound 0.316 µM, first compound 0.316 µM
[16] = second compound 0.316 µM, first compound 1 µM
[17] = second compound 0.316 µM, first compound 3.16 µM
[18] = second compound 0.316 µM, first compound 10 µM
[19] = second compound 1 µM, first compound 0.0316 µM
[20] = second compound 1 µM, first compound 0.1 µM
[21] = second compound 1 µM, first compound 0.316 µM
[22] = second compound 1 µM, first compound 1 µM
[23] = second compound 1 µM, first compound 3.16 µM
[24] = second compound 1 µM, first compound 10 µM
[25] = second compound 3.16 µM, first compound 0.0316 µM
[26] = second compound 3.16 µM, first compound 0.1 µM
[27] = second compound 3.16 µM, first compound 0.316 µM
[28] = second compound 3.16 µM, first compound 1 µM
[29] = second compound 3.16 µM, first compound 3.16 µM
[30] = second compound 3.16 µM, first compound 10 µM
[31] = second compound 10 µM, first compound 0.0316 µM
[32] = second compound 10 µM, first compound 0.1 µM
[33] = second compound 10 µM, first compound 0.316 µM
[34] = second compound 10 µM, first compound 1 µM
[35] = second compound 10 µM, first compound 3.16 µM
[36] = second compound 10 µM, first compound 10 µM
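Note: luminescence signal used as a surrogate for viable cells; spheroids exposed to drugs for seven days before readout.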

COc1ccc([C@@H](O)c2cc(-c3ncnc4cc(N5CCOCC5)ccc34)c(F)cc2Cl)nn1 + COC1C(OC(N)=O)C(O)C(Oc2ccc3c(O)c(NC(=O)c4ccc(O)c(CC=C(C)C)c4)c(=O)oc3c2C)OC1(C)C
inactive: viability, T/C [1] 116% | viability, T/C [2] 115% | viability, T/C [3] 110% | viability, T/C [4] 92% | viability, T/C [5] 105% | viability, T/C [6] 87.7% | viability, T/C [7] 109% | viability, T/C [8] 103% | viability, T/C [9] 95.3% | viability, T/C [10] 97.5% | viability, T/C [11] 94.4% | viability, T/C [12] 98.5% | viability, T/C [13] 107% | viability, T/C [14] 103% | viability, T/C [15] 92.5% | viability, T/C [16] 96.8% | viability, T/C [17] 115% | viability, T/C [18] 81.7% | viability, T/C [19] 98% | viability, T/C [20] 106% | viability, T/C [21] 109% | viability, T/C [22] 92.4% | viability, T/C [23] 97.2% | viability, T/C [24] 77.4% | viability, T/C [25] 106% | viability, T/C [26] 108% | viability, T/C [27] 109% | viability, T/C [28] 105% | viability, T/C [29] 93.3% | viability, T/C [30] 83.8% | viability, T/C [31] 111% | viability, T/C [32] 103% | viability, T/C [33] 118% | viability, T/C [34] 83.6% | viability, T/C [35] 115% | viability, T/C [36] 114%
> 10 µM: IC50 (second compound 0.0316 µM) | IC50 (second compound 0.1 µM) | IC50 (second compound 0.316 µM) | IC50 (second compound 1 µM) | IC50 (second compound 3.16 µM) | IC50 (second compound 10 µM)

C=CCn1c(=O)c2cnc(Nc3ccc(N4CCN(C)CC4)cc3)nc2n1-c1cccc(C(C)(C)O)n1 + Cc1cccc(N(C)C(=O)C2C(O)CCN2c2nc(C)cc(C(F)(F)F)c2C#N)c1
inactive: viability, T/C (second compound 0.0316 µM, first compound 0.00316 µM) 101% | viability, T/C (second compound 0.0316 µM, first compound 0.01 µM) 100% | viability, T/C [1] 93.9% | viability, T/C [2] 90.9% | viability, T/C [3] 100% | viability, T/C [4] 76.2% | viability, T/C (second compound 0.1 µM, first compound 0.00316 µM) 99.4% | viability, T/C (second compound 0.1 µM, first compound 0.01 µM) 109% | viability, T/C [7] 95% | viability, T/C [8] 88.8% | viability, T/C [9] 81.2% | viability, T/C [10] 64.2% | viability, T/C (second compound 0.316 µM, first compound 0.00316 µM) 89.4% | viability, T/C (second compound 0.316 µM, first compound 0.01 µM) 113% | viability, T/C [13] 110% | viability, T/C [14] 91.9% | viability, T/C [15] 83.2% | viability, T/C [16] 75% | viability, T/C (second compound 1 µM, first compound 0.00316 µM) 118% | viability, T/C (second compound 1 µM, first compound 0.01 µM) 109% | viability, T/C [19] 106% | viability, T/C [20] 99.8% | viability, T/C [21] 113% | viability, T/C [22] 84.9% | viability, T/C (second compound 3.16 µM, first compound 0.00316 µM) 93.2% | viability, T/C (second compound 3.16 µM, first compound 0.01 µM) 95.6% | viability, T/C [25] 101% | viability, T/C [26] 96.1% | viability, T/C [27] 85.4% | viability, T/C [28] 59.6% | viability, T/C (second compound 10 µM, first compound 0.00316 µM) 111% | viability, T/C (second compound 10 µM, first compound 0.01 µM) 99.5% | viability, T/C [31] 95.3% | viability, T/C [32] 93.6% | viability, T/C [33] 78.9% | viability, T/C [34] 94.8%
> 1 µM: IC50 (second compound 0.0316 µM) | IC50 (second compound 0.1 µM) | IC50 (second compound 0.316 µM) | IC50 (second compound 1 µM) | IC50 (second compound 3.16 µM) | IC50 (second compound 10 µM)

O=C(Nc1ccc(O)c(NS(=O)(=O)c2ccc(F)cc2)c1)c1ccc(-c2ccccc2)cc1 + Cc1cccc(N(C)C(=O)C2C(O)CCN2c2nc(C)cc(C(F)(F)F)c2C#N)c1
inactive: viability, T/C [1] 105% | viability, T/C [2] 105% | viability, T/C [3] 99.4% | viability, T/C [4] 100% | viability, T/C [5] 101% | viability, T/C [6] 72.7% | viability, T/C [7] 107% | viability, T/C [8] 99.4% | viability, T/C [9] 93.9% | viability, T/C [10] 103% | viability, T/C [11] 91% | viability, T/C [12] 98.1% | viability, T/C [13] 105% | viability, T/C [14] 91.9% | viability, T/C [15] 111% | viability, T/C [16] 103% | viability, T/C [17] 97.5% | viability, T/C [18] 92.5% | viability, T/C [19] 93.7% | viability, T/C [20] 84.4% | viability, T/C [21] 94.9% | viability, T/C [22] 87.3% | viability, T/C [23] 111% | viability, T/C [24] 98.6% | viability, T/C [25] 97.2% | viability, T/C [26] 106% | viability, T/C [27] 93% | viability, T/C [28] 80.6% | viability, T/C [29] 106% | viability, T/C [30] 91.7% | viability, T/C [31] 96.8% | viability, T/C [32] 101% | viability, T/C [33] 108% | viability, T/C [34] 93% | viability, T/C [35] 89.5% | viability, T/C [36] 105%
> 10 µM: IC50 (second compound 0.0316 µM) | IC50 (second compound 0.1 µM) | IC50 (second compound 0.316 µM) | IC50 (second compound 1 µM) | IC50 (second compound 3.16 µM) | IC50 (second compound 10 µM)

O=C(Nc1ccc(O)c(NS(=O)(=O)c2ccc(F)cc2)c1)c1ccc(-c2ccccc2)cc1 + Nc1ccc(C#CCN(C(=O)Cc2ncc(C(F)(F)F)cc2C(F)(F)F)c2ccc(F)cc2)nn1
> 10 µM: IC50 (second compound 0.0316 µM) | IC50 (second compound 0.1 µM) | IC50 (second compound 0.316 µM) | IC50 (second compound 1 µM) | IC50 (second compound 3.16 µM) | IC50 (second compound 10 µM)
inactive: viability, T/C [1] 106% | viability, T/C [2] 108% | viability, T/C [3] 106% | viability, T/C [4] 99.1% | viability, T/C [5] 91.3% | viability, T/C [6] 97.7% | viability, T/C [7] 109% | viability, T/C [8] 91.9% | viability, T/C [9] 96.8% | viability, T/C [10] 105% | viability, T/C [11] 119% | viability, T/C [12] 87.5% | viability, T/C [13] 104% | viability, T/C [14] 114% | viability, T/C [15] 106% | viability, T/C [16] 101% | viability, T/C [17] 107% | viability, T/C [18] 84.6% | viability, T/C [19] 105% | viability, T/C [20] 105% | viability, T/C [21] 95.2% | viability, T/C [22] 101% | viability, T/C [23] 102% | viability, T/C [24] 89.8% | viability, T/C [25] 98% | viability, T/C [26] 97.9% | viability, T/C [27] 114% | viability, T/C [28] 110% | viability, T/C [29] 102% | viability, T/C [30] 90.9% | viability, T/C [31] 105% | viability, T/C [32] 101% | viability, T/C [33] 113% | viability, T/C [34] 103% | viability, T/C [35] 97.4% | viability, T/C [36] 81%
